Test results reported in PMC11945486, “TAS1R2/TAS1R3 Single-Nucleotide Polymorphisms Affect Sweet Taste Receptor Activation by Sweeteners: The SWEET Project” (Nutrients, 2025).
Substitutions are numbered along the chain they refer to.

Assays:
mTAS1R2-WT/mTAS1R3-WT = molecular target: T1, mTAS1R2-WT/mTAS1R3-WT (Mus musculus, UniProt Q925D8+Q925I4); experiment: Calcium mobilisation assay, HEK293T-Gα16gust44 cells, mouse sweet taste receptor WT; assay type: cell-based; conditions: mTAS1R2-WT + mTAS1R3-WT; "-": no activation
T1 construct: expressed in transfected cells; host or cells: HEK293T-Gα16gust44
T1 sequence (Q925I4 20-843): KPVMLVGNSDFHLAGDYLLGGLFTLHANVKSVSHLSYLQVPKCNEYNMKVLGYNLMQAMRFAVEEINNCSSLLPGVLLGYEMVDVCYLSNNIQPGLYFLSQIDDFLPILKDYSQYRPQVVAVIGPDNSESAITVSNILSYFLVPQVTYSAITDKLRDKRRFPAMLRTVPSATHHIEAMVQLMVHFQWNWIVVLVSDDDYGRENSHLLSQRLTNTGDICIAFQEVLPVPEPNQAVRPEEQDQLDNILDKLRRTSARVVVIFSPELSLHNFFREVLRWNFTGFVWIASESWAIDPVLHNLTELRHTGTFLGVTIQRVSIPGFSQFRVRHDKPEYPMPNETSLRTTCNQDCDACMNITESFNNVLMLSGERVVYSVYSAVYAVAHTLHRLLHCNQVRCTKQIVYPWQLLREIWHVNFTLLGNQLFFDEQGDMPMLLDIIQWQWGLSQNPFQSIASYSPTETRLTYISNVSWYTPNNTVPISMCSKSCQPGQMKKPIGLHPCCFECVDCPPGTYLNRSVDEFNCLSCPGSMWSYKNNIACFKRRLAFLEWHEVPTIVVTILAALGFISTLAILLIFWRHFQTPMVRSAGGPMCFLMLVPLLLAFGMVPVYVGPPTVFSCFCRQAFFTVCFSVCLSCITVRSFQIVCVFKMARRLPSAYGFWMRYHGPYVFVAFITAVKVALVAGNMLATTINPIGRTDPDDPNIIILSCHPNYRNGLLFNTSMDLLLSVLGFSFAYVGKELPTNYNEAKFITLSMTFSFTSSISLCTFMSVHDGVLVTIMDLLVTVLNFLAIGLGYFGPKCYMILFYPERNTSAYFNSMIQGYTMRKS
T1 sequence (Q925D8 21-858): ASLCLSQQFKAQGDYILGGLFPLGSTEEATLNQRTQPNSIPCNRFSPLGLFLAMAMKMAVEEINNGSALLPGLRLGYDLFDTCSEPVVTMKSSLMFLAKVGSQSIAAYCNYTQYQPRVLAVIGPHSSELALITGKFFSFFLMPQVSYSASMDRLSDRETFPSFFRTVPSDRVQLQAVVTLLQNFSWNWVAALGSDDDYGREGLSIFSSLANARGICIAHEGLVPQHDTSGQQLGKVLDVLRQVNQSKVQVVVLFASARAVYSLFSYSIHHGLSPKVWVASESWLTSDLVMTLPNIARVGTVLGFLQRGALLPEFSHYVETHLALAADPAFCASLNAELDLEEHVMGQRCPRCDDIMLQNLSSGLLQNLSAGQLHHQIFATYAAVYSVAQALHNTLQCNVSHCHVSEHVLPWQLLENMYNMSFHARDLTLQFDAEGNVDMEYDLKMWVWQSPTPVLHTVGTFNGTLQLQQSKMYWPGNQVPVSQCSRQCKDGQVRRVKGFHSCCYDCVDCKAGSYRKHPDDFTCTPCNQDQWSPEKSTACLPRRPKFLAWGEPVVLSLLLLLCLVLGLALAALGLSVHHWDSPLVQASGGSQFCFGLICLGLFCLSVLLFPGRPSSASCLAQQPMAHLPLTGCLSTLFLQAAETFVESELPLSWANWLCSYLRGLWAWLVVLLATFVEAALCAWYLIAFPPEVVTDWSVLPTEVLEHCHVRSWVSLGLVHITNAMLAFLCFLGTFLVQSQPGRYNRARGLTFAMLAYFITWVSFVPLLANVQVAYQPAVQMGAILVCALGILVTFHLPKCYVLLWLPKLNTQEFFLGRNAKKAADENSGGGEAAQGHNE
Experimental: (§1) The HEK293T cells were kindly provided by Jay P. Slack (Givaudan Flavors Corporation; Cincinnati, OH, USA). HEK293T cells stably transfected with Gα16gust44 [43, 67] were seeded in poly-D-lysine-coated clear-bottom black 96-well plates (0.35 × 10^5 cells/well) in high-glucose DMEM supplemented with 2 mM GlutaMAX, 10% dialysed foetal bovine serum with penicillin/streptomycin and G418 (400 μg/mL) at 37 °C and 6.3% CO2 in a humidified atmosphere as previously reported. […] As a negative control, HEK293T cells were mock-transfected with the empty expression vector. After a further 24 h of incubation, the HEK293T cells were washed with C1 buffer (130 mM NaCl, 5 mM KCl, 10 mM HEPES pH 7.4 and 2 mM CaCl2). The 96-well plates containing the cells were then stimulated with sweet-tasting compounds. […] Different concentration ranges were tested depending on the sweet compound injected. The Ca^2+ changes were expressed as fractional changes in fluorescent light intensity: ΔF/F = (F − F0)/F0, where F was the fluorescent light intensity at each point, and F0 was the value of emitted fluorescent light prior to stimulus application. To calculate dose–response relationships, the changes in fluorescence upon stimulus application were averaged, mock-subtracted and baseline-corrected. The dose–response data obtained were adjusted using a 4-parameter logistic equation. The half-maximal effective concentrations (EC50 values) and maximal signal amplitudes were calculated using SigmaPlot software (version 15.0) (Systat Software; San Jose, CA, USA).
(§2) HEK293T-Gα16gust44 cells were transiently cotransfected with pcDNA6-MAX-mTAS1R2-FLAG, pcDNA4-MAX-mTAS1R3-WT-FLAG or pcDNA4-MAX-mTAS1R3-I60T-FLAG, and pCMV-GCaMP5G as previously described in detail. After 24 h, the cells were washed with C1 buffer and stimulated with a logarithmically increasing range of sweetener concentrations. Calcium responses during automated application were monitored using a FlexStation®3 Multi-Mode microplate reader. The dose–response curves, EC50 values and maximal signal amplitudes were calculated as previously described.
(§3) For in vitro calcium mobilisation assay performed on hTAS1R2-SNPs, hTAS1R3-SNPs and mTAS1R3-I60T, 6 to 7 concentrations were tested for each sweet compound, plus buffer alone. All concentration–receptor combinations were measured in duplicate, and each experiment was repeated at least 4 times (8 wells/concentration). Results were expressed for each concentration as ΔF/F mean ± SEM and represented as dose–response curves.

mTAS1R2-WT/mTAS1R3-I60T = molecular target: T2, mTAS1R2-WT/mTAS1R3-I60T (Mus musculus, UniProt Q925D8+Q925I4, I60T); experiment: Calcium mobilisation assay, HEK293T-Gα16gust44 cells, mouse TAS1R3-I60T variant; assay type: cell-based; conditions: mTAS1R2-WT + mTAS1R3-I60T; "-": no activation
T2 construct: expressed in transfected cells; host or cells: HEK293T-Gα16gust44
T2 sequence (Q925I4 20-843): T1 sequence (Q925I4 20-843)
T2 sequence (Q925D8 21-858 I60T): T1 sequence (Q925D8 21-858) with I40T
Experimental: as §1, §2, §3

Compound `O=C1NS(=O)(=O)c2ccccc21` [Saccharin, saccharin] has an EC50 (mTAS1R2-WT/mTAS1R3-WT) of 1520 ± 17 µM and an EC50 (mTAS1R2-WT/mTAS1R3-I60T) of 2540 ± 61 µM.
